Laboratory results published in US12558326B2, “Method for treating epilepsy” (Xenon Pharmaceuticals Inc., priority 2018, dated 2026).
Values joined by “and” are separate entries in the source; they are usually repeats but may differ in a detail not shown here. Equal entries are not always repeated.

How the values were obtained:
[1] = Brain and plasma distribution after the 6 Hz assay (UHPLC-ESI-MS/MS); assay type: in vivo, mouse; conditions: 20 mg/kg IP, total concentration, sampled immediately after 6 Hz assay (one hour post dose)
Description: Pharmacological distribution and bioanalysis. Immediately following characterization of seizure behaviors in the 6 Hz assay, animals were humanely sacrificed and brain and plasma samples were collected for analysis of the distribution of the administered compounds to these tissue compartments.
Brain sample homogenization. Pre-weighed whole mouse brains were thawed and 1 mL of deionized water and 1 mL of acetonitrile were added to each sample vial containing brain tissue. The samples were homogenized using a hand-held Omni™ TH homogenizer (Omni International, Kennesaw, GA, USA) until a uniform slurry was obtained. 1 mL aliquots of the slurry were transferred to clean 1.5 mL plastic Eppendorf tubes and the tubes were centrifuged at 13,000 rpm (15,871×g) for 20 minutes. The supernatant was collected and stored in clean labelled plastic Eppendorf vials at −80° C.
Mouse plasma and brain homogenate sample preparation. Mouse brain homogenates and mouse plasma samples, as well as calibration standards and QC samples prepared from control (“blank”) untreated mouse plasma, were extracted by protein precipitation. Briefly, 50 μL of each brain homogenate and mouse plasma sample (as well as each calibration standard, QC sample and blank mouse plasma sample) was mixed with 50 μL of internal standard solution [a 2,500 ng/mL solution of (S)-5-((1-benzylpyrrolidin-3-yl)(methyl)amino)-6-methyl-N-(thiazol-4-yl)pyridine-2-sulfonamide in deionized water/acetonitrile (1:1 v/v)], followed by addition of 50 μL of 6% (v/v) phosphoric acid in water. This was followed by the addition of 200 μL of acetonitrile. The samples were vortexed for 30 seconds and then centrifuged for 20 min at 13,000 rpm (15,871×g). The supernatants were further diluted four-fold with acetonitrile:water (1:1 v/v) and transferred to a 96-well plate prior to analysis. Calibration and QC samples were prepared in blank K2EDTA mouse plasma in the concentration range from 2.3 ng/mL to 4800 ng/mL with QC samples, including low QC (14 ng/mL), mid QC (225 ng/mL), and high QC (3600 ng/mL).
UHPLC-ESI-MS/MS analysis. Samples were then analyzed by ultra-high pressure liquid chromatography/electrospray ionization tandem mass spectroscopy (UHPLC-ESI MS/MS) using a Sciex™ TQ-5500 (AB Sciex™ LP, Concord, ON, Canada) mass spectrometer equipped with a Shimadzu Nexera™ UHPLC pump, column compartment and auto-sampler (Shimadzu Scientific Instruments, Inc., Columbia, MD, USA), using a binary gradient elution starting with 80% water (A)/20% acetonitrile (B), both solvents containing 0.1% formic acid. After 0.6 minutes, mobile phase B was increased linearly to 100% to 1 minute and elution was maintained at 100% mobile phase B until 1.5 minutes, and then allowed to re-equilibrate at the initial ration of 80% mobile phase A and 20% mobile phase B for a total run time of 2.5 minutes at a flow rate of 0.4 mL/min. The column used was ACE Excel™ 2 C18-PFP (2.1 mm i.d.×[…], 2 μm particle size)(Advanced Chromatography Technologies Ltd, Aberdeen, Scotland). The analytes and the internal standard were ionized by electrospray in the positive ion mode and detected by multiple reaction monitoring (MRM) using the transitions listed in Table 1.

CF-1 mice = test: 6 Hz seizure test (44 mA, 3 sec, corneal electrodes) in vivo; parameters: species or system mouse; conditions: 20 mg/kg IP; for percentage of animals protected against psychomotor seizures: one hour before assay, 6 Hz 44 mA, n=16 per group
Excerpt: This assay tests the ability of a test compound to block a psychomotor seizure induced by long-duration, low frequency (6 Hz) stimulation, and provides an art-accepted model of therapy-resistant partial seizure (Brown et al., 1953 J. Pharmacol. Exp. Therapeut. 107(3):273-283; White H S, Woodhead J H, Wilcox K S, General principles: discovery and preclinical development of antiepileptic drugs, In: Levy R H, Mattson R H, Meldrum B S, Perucca E, editors. Antiepileptic drugs 5th ed Philadelphia: Lippincott Williams & Wilkins; 2002. pp. 36-48; Hartman et al., 2008 Epilepsia 49(2):334-339).
Methods. Adult male CF1 mice (18-25 g) are pretreated intraperitoneally (i.p.) with the test compound at a dose of 20-100 mg/kg. If toxicity is noted in a pre-test screen for toxic effects when the test compound is administered i.p. at varying dosages, the dose is modified to avoid overt toxic effects. Each treatment group (n=4-16 mice/group) is examined for anticonvulsive effects at one or more of five time points (¼, ½, 1, 2, and 4 hr) after treatment with the test compound. Following pretreatment, each mouse receives a drop of 0.5% tetracaine hydrochloride applied to each eye. The mouse is then challenged with low-frequency (6 Hz) stimulation for 3 sec delivered through corneal electrodes. The low-frequency, long-duration stimuli are initially delivered at 32 mA intensity. Animals are manually restrained and released immediately following the stimulation and observed for the presence or absence of seizure activity. If the test compound is effective in the 32 mA screen, an additional assay is performed in which the stimulation current is increased to 44 mA but otherwise using the same protocol as described above. For dose-response studies, an n of 8 mice is used per dose and a dose-response curve is generated at the time of peak effect (TPE) at the specific stimulation intensity.
Typically, the 6 Hz stimulation results in a seizure characterized by a minimal clonic phase that is followed by stereotyped, automatistic behaviors, including jaw clonus, forelimb clonus, twitching of the vibrissae, and/or Straub-tail. Animals not displaying such behaviors are considered protected. Seizure score can be used as an additional measure of the efficacy of the investigational compound (Racine, R. J. 1972 Electroencephalogr. Clin. Neurophysiol. 32(3):281-294). Data are analyzed by Mann-Whitney U test, with p<0.05 determined to be statistically significant. For data obtained at each time point, results are expressed as the total number of animals protected out of the number of animals tested over time (e.g., 2/4 represents 2 out of 4 mice tested are protected).
In this Example, the in vivo anticonvulsant effects of candidate AEDs were tested in mice using the 6 Hz seizure test. The 6 Hz seizure test was performed essentially as described above in Biological Example 2, with minor modifications as presented here, including data collection at a time point that was one hour after administration of the candidate AEDs.
Compounds: Candidate AED compounds were prepared as described above unless otherwise noted, and were as follows: • Racemic fenfluramine ([rac]-fenfluramine hydrochloride); • (R)-fenfluramine ([R]-(−)-fenfluramine hydrochloride); • Racemic norfenfluramine ([rac]-norfenfluramine) was purchased from Toronto Research Chemicals, North York, Ontario, Canada; • (R)-norfenfluramine ([R]-(−)-norfenfluramine.
Animals: Adult male CF-1 albino mice (25-35 g) purchased from Harlan-Envigo (East Millstone, NJ). The mice were housed four per cage and had access to filtered water and chow ad libitum, throughout the experiment.
Compound Preparation and Administration: All four compounds were solubilized in sterile aqueous saline solution (0.9% NaCl). Compounds were administered to animals (16 mice in each treatment group) via intraperitoneal (IP) injection at 10 ml/kg volume, one hour prior to the assay. Control animals received vehicle (saline) only. […]

Structure (SMILES)	Brain concentration [1]	Plasma concentration [1]	percentage of animals protected against psychomotor seizures (CF-1 mice) [%]	protective activity against seizures in the 6 Hz psychomotor seizure assay (CF-1 mice; summary statement)
CCNC(C)Cc1cccc(C(F)(F)F)c1 (racemic) [(rac)-fenfluramine, (R/S)—N-ethyl-1-(3-(trifluoromethyl)phenyl)propan-2-amine]	146.5 μM and 33870 ng/g	10.74 μM and 2484 ng/g	37.5	exhibited protective activity against seizures
CCN[C@H](C)Cc1cccc(C(F)(F)F)c1 [(R)-fenfluramine, (R)—N-ethyl-1-(3-(trifluoromethyl)phenyl)propan-2-amine]	193.7 μM and 44797 ng/g	15.02 μM and 3474 ng/g	31.3	
